Literature values in US20260009077A1, “COMPOSITIONS AND METHODS FOR TREATING HYPOTHYROIDISM” (THE UNIVERSITY OF CHICAGO, priority 2022, published 2026).

For `N[C@@H](Cc1cc(I)c(Oc2cc(I)c(O)c(I)c2)c(I)c1)C(=O)O` [levothyroxine], the “proportion of patients noticing reemergence of hypothyroid symptoms” value (after switch from T4 and T3 containing treatment to T4 only, despite appropriate T4 doses) is given as 15-20% and the “patients in whom treatment restores normal life” value (hypothyroidism patients, daily tablets, standard of care) is given as “at least 80%”.
